Test system: U87MG-R
Assay: Orthotopic TMZ-resistant GBM mouse model, intracranial U87MG-R
Details: TMZ (15 mg/kg oral) plus vehicle; untreated control 21 days
Procedure: Animal survival was evaluated from the first day of treatment until death.
TMZ-resistant GBM inoculated orthotopic mice were randomly grouped and treated with TMZ or TMZ plus JM17.
Briefly, a skull burr hole was first created in the right frontal brain area. An ultra-fine needle was then inserted to a depth of 3 mm using stereostatic guiding, and 5×10^5 TMZ-resistant cells were injected.
Twenty-eight-week-old nude mice received U87MG-R transplantation. Five days later, these animals were randomized into four treatment groups (7 animals per group), which received TMZ (15 mg/kg) by oral gavage and JM17 by the intravenous injection three times per week (Day 1, 3, 5 of the week) as follows: Control (untreated), TMZ plus vehicle, TMZ plus JM17 (5 mg/kg) and TMZ plus JM17 (20 mg/kg) (FIG. 5).

`Cn1nnc2c(C(N)=O)ncn2c1=O` [TMZ, temozolomide] gave a median survival of 20 days.
